Test results published in patent publication US5977065A, “Bacterial nitroreductase for the reduction of CB1954 and analogues thereof to a cytotoxic form” (Cancer Research Campaign Technology Limited, priority 1991, dated 1999).

Tests used:
V79 cells [1] = test: Survival (colony-forming ability) of V79 cells treated with CB 1954 in the presence of E. coli B nitroreductase (Table 4); type: cell-based, Hamster; details: 500 μM NADH
Experimental: E. coli B nitroreductase. All treatments were for 2 hours at 37°
cells were then plated out for their resulting colony-forming ability.
nitroreductase concentration was 2 μg/ml and NADH was used as a […]

[2] = molecular target: T1, Walker NAD(P)H dehydrogenase (quinone) EC 1.6.99.2 (Rattus norvegicus, UniProt P05982); test: Enzyme kinetic studies; type: biochemical
T1 construct: the enzyme isolated from the Walker tumour, EC.1.6.99.2; from tissue; host or cells: Walker tumour (Walker cell)
T1 sequence (P05982 2-274 limits assumed): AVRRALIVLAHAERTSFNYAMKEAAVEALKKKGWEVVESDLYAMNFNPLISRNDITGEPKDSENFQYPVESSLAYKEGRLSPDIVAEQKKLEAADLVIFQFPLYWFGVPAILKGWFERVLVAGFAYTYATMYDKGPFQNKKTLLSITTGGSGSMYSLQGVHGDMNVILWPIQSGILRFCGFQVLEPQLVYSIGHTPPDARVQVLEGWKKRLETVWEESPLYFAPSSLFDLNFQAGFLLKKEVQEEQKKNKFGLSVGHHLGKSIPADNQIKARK
Experimental: Quinone reductase activities were assayed by a spectrophotometric method using menadione as a substrate and cytochrome c as a terminal electron acceptor as described in Knox et al, Biochem. Pharmacol., 37, 4671-4677, 1988. Initial rates of reaction were determined by linear regression analysis (r>0.995) and kinetic parameters determined from the resulting plots as described by Roberts et al, Biochem. Pharmacol. 38, 4137-4143, 1989. Protein concentration was determined using the a conventional protein assay (Bio-Rad) calibrated against bovine serum albumin.
Kinetic parameters for the E. coli nitroreductase and Walker NAD(P)H, dehydrogenase (quinone) EC. […] The absolute rates of reduction of CB 1954 (i.e. under saturating conditions) by the two enzymes is their kcat values and this is 90 fold higher for the E. coli nitroreductase.

E. coli B nitroreductase [3] = molecular target: T2, E. coli B nitroreductase (Escherichia coli, UniProt P38489); test: Enzyme kinetic and inhibition studies; type: biochemical
T2 construct: endogenous in cells; host or cells: E. coli B cell paste; endogenous enzyme purified by Phenyl-Sepharose and Q-Sepharose chromatography, not recombinant
T2 sequence (P38489 whole entry): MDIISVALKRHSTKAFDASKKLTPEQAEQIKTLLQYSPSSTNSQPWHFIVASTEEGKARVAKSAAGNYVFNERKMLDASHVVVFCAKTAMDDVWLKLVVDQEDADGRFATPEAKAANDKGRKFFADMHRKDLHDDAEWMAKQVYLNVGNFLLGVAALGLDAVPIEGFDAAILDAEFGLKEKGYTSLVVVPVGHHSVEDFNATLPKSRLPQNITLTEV
Experimental: Protein concentration was determined using the a conventional protein assay (Bio-Rad) calibrated against bovine serum albumin.

V79 cells [4] = test: Survival (colony forming ability) of V79 cells with enzyme-activated prodrugs (Table 8); type: cell-based
Experimental: (§1) Generation of cytotoxicity by the action of the E. coli nitroreductase of Example 1 upon the prodrugs 4-[bis(2-chloroethyl)amino]phenylcarbamic acid 4'-nitrobenzyl ester (I where R^1 NH2 =III) and N-4-nitrobenzyloxy-carbonyl-actinomycin D (V) are shown in Table 8.
(§2) The effect of enzyme-activated prodrugs on the survival of V79
(§3) cells. 1 ml volumes of V79 cells (2 × 10^5 /ml) were incubated
(§4) with prodrug, 500 μM NADH, and 10 μg/ml enzyme. After a 2 hour
(§5) incubation at 37° C., the cells were harvested and assayed for
(§6) their colony forming ability, and the supernatant assayed for
(§7) the concentration of remaining prodrug by HPLC.

MAWI cells = test: Survival (colony forming ability) of MAWI cells with enzyme-activated prodrugs (Table 7); type: cell-based, human; details: 500 μM NADH alone
Experimental: The effect of enzyme-activated prodrugs on the survival of MAWI
cells. 1 ml volumes of MAWI cells (2 × 10^5 /ml) were
with 50 μM prodrug, 500 μM NADH, and 10 μg/ml the enzyme of
Example 1. After a 2 hour incubation at 37° C., the cells were
harvested and assayed for their colony forming ability, and the
supernatant assayed for the concentration of remaining prodrug

E. coli B nitroreductase [5] = molecular target: T2, E. coli B nitroreductase; test: Formation of actinomycin D by the nitroreductase upon prodrug V (HPLC); type: biochemical; details: V 100 μM, 500 μM NADH, enzyme 2 μg/ml, pH7, 37° C.
Experimental: Disappearance of the prodrug N-4-nitro-benzyloxycarbonyl-actinomycin D (V) and formation of actinomycin D during incubation with the E. coli B nitroreductase of Example 1 is shown in FIG. 2.

E. coli nitroreductase = molecular target: T3, E. coli nitroreductase (Escherichia coli, UniProt P38489); test: % drug reduction in the V79 incubations, remaining prodrug by HPLC (Table 8); type: biochemical
T3 construct: endogenous in cells; host or cells: E. coli B cell paste; endogenous enzyme purified by Phenyl-Sepharose and Q-Sepharose chromatography, not recombinant
T3 sequence (P38489 whole entry): as above
Experimental: as §1, §2, §3, §4, §5, §6, §7

[6] = In vivo toxicity of prodrug in mice; details: for Weight as % of Day 0, Day 2 / Weight as % of Day 0, Day 3 / Weight as % of Day 0, Day 7 / Weight as % of Day 0, Day 9: mice
Experimental: The actinomycin D prodrug (AMDPD) of formula V was tested for toxicity in mice. Groups of 3 mice were given 1, 10 or 100 mg/kg body weight i.p. of AMPD, and two further groups of 3 mice were given 1 and 10 mg/kg body weight i.p. of actinomycin D (AMD) dissolved in arachis oil. A further group of 3 mice were untreated, and a final group of 3 mice were given arachis oil i.p. only.
The body weight of the mice were monitored over 9 days. All mice treated with 10 mg/kg of AMD were dead by day 1. […] In practice, the toxicity of AMDPD is likely to be even lower, since the preparation of AMDPD used contains about 1% unconverted AMD.

[7] = NR 10 μg/ml + 1 μM prodrug + 500 μM NADH

NC(=O)C1=CN([C@@H]2O[C@H](COP(=O)(O)OP(=O)(O)OC[C@H]3O[C@@H](n4cnc5c(N)ncnc54)[C@H](O)[C@@H]3O)[C@@H](O)[C@H]2O)C=CC1 [NADH]
% SURVIVAL (V79 cells [1]): 100%
Km [2]: 75 µM
Km of the nitroreductase for NADH less than the Walker enzyme (E. coli B nitroreductase [3]): about 10 fold
% SURVIVAL (V79 cells [4]; 500 μM NADH alone): 100%
% SURVIVAL (MAWI cells): 100%

Cc1c2oc3c(C)ccc(C(=O)NC4C(=O)NC(C(C)C)C(=O)N5CCCC5C(=O)N(C)CC(=O)N(C)C(C(C)C)C(=O)OC4C)c3nc-2c(C(=O)NC2C(=O)NC(C(C)C)C(=O)N3CCCC3C(=O)N(C)CC(=O)N(C)C(C(C)C)C(=O)OC2C)c(NC(=O)OCc2ccc([N+](=O)[O-])cc2)c1=O (centres unmarked) [V, N-4-Nitrobenzyloxycarbonyl-actinomycin D]
release of actinomycin D from the prodrug (E. coli B nitroreductase [5]): Only when the enzyme was present was actinomycin D released
% DRUG REDUCTION (E. coli nitroreductase; 1 μM prodrug alone): < 1.0%
% DRUG REDUCTION (E. coli nitroreductase; 10 μM prodrug alone): < 1.0%
% DRUG REDUCTION (E. coli nitroreductase; [7]): 90.5%
% DRUG REDUCTION (E. coli nitroreductase; NR 10 μg/ml + 10 μM prodrug + 500 μM NADH): 93%
% SURVIVAL (V79 cells [4]; 1 μM prodrug alone): 98.3%
% SURVIVAL (V79 cells [4]; 10 μM prodrug alone): 39.3%
% SURVIVAL (V79 cells [4]; [7]): 27.4%
Weight as % of Day 0, Day 2 ([6]; dose 1.0 mg/kg i.p.): 102%
Weight as % of Day 0, Day 3 ([6]; dose 1.0 mg/kg i.p.): 101%
Weight as % of Day 0, Day 7 ([6]; dose 1.0 mg/kg i.p.): 101%
Weight as % of Day 0, Day 9 ([6]; dose 1.0 mg/kg i.p.): 103%
Weight as % of Day 0, Day 2 ([6]; dose 10 mg/kg i.p.): 109%
Weight as % of Day 0, Day 3 ([6]; dose 10 mg/kg i.p.): 105%
Weight as % of Day 0, Day 7 ([6]; dose 10 mg/kg i.p.): 108%
Weight as % of Day 0, Day 9 ([6]; dose 10 mg/kg i.p.): 110%
deaths ([6]; dose 100 mg/kg i.p., groups of 3 mice, Day 2): 1 dead
Weight as % of Day 0, Day 2 ([6]; dose 100 mg/kg i.p.): 96.4%
Weight as % of Day 0, Day 3 ([6]; dose 100 mg/kg i.p.): 95.6%
Weight as % of Day 0, Day 7 ([6]; dose 100 mg/kg i.p.): 95%
Weight as % of Day 0, Day 9 ([6]; dose 100 mg/kg i.p.): 96%
